# Values quoted from earlier work as cited in patent US12133913B2, “Methods of treating overactive bladder using trospium” (TARIS BIOMEDICAL LLC, priority 2018, dated 2024).
# Where a name gives a salt, the structure may show the parent alone. Read-outs that look alike come from different tables or passages of the source.
# Experiments:
# [1] = tested on: oral naïve overactive bladder patients
# [2] = in vivo
smiles,measurement,setting,value
"Cc1ccc(O)c([C@H](CCN(C(C)C)C(C)C)c2ccccc2)c1 [Detrol® LA, tolterodine tartrate]",Reduction in average daily incontinence episodes from baseline,"[1]; in vivo, po",0.8
"O=C(O[C@H]1CN2CCC1CC2)N1CCc2ccccc2[C@@H]1c1ccccc1 [VESIcare®, solifenacin succinate]",Reduction in average daily incontinence episodes from baseline,"[1]; oral treatment, oral naïve patients",1.4
"O=C(OC1CC2CCC(C1)[N+]21CCCC1)C(O)(c1ccccc1)c1ccccc1.[Cl-] (stereo not drawn) [oral trospium, 3-(2-hydroxy-2,2-diphenylacetoxy)spiro[bicyclo[3.2.1]octane-8,1′-pyrrolidin]-1′-ium chloride]",Predicted urine levels achieved with oral trospium,[2],0.5 to 1 µg/mL
